# Test results taken from the METLIN SMRT retention time set (Domingo-Almenara et al. 2019).
# Assay: gradient 5% acetonitrile 3 min, to 50% in 2 min, to 85% in 15 min, held 3 min, 100 µL/min
# Details: column: Zorbax Extend-C18 2.1 x 50 mm; eluents: water / acetonitrile, 0.1% formic acid
# Summary of the method: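 A Zorbax Extend-C18 column (2.1 × 50 mm, 1.8 μm) run at 100 μL/min with water and acetonitrile, both containing 0.1% formic acid, separated mixtures of ~100 pure standards. The HPLC was coupled to a quadrupole time-of-flight mass spectrometer operated in positive and negative ionization mode, with dead and dwell volumes of 40 μL and 900 μL. Each retention time was taken from a computationally picked adduct peak that was then manually inspected.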
row,RP-LC retention time,SMILES
1,692 s,CCC1CCCCN1C(=O)c1cnc2nc(C)ccc2c1Nc1ccc(OC)cc1C (stereo not drawn)
2,940 s,Cc1c(C(=O)NC2CC2)cnn1-c1cc(-c2nc(C(C)C)no2)ccn1
3,900 s,Cc1cc(-c2nnc(-c3ccccc3)o2)c(C)n1CC(=O)NCc1cccs1
4,742 s,O=C(Nc1cnn(-c2ncncc2N2CCSCC2)c1)NC1CCCCC1
5,737 s,O=C(NC1CC1)c1ccc(OCC2CCCN(C(=O)c3ccsc3)C2)cc1 (stereo not drawn)
6,766 s,COCCNc1c(-c2ccc(C)cc2)nc2sc(C(=O)NC3CC3)c(C)n12
7,696 s,CCCN(C)c1nccn2c(=O)n(CC(=O)Nc3cc(C)ccc3C)nc12
8,1280 s,Cc1cc(C)cc(C(=O)NC2(c3nc(-c4ccccc4)no3)CCCCC2)c1
9,1030 s,CCOC(=O)c1ccccc1NC(=O)Cn1cccc(-c2nc(-c3ccccc3)no2)c1=O
10,724 s,Cc1ccc(CSc2nc(CC(=O)NCc3nnc(C)o3)cs2)cc1
11,808 s,C[C@@H]1CCO[C@H]2Cn3cc(C(=O)NCc4ccc(F)cc4F)c(=O)c(O)c3C(=O)N12
12,860 s,CCOC(=O)c1c(C)oc2ncnc(NCCN3CCN(c4cccc(Cl)c4)CC3)c12
13,1170 s,Cc1ccc(C)c(-c2coc(-c3ccc(NC(=O)C(C)C)cc3)n2)c1
14,747 s,CCCNS(=O)(=O)c1cc(-c2c(CC)noc2NC(C)=O)ccc1C
15,946 s,O=C(c1cc(F)cc(F)c1)N1CCc2nc(-c3ccccc3)ncc2C1
16,738 s,Cc1ccc(CNC(=O)N2CCc3c(c(-c4nc(C)no4)nn3C)C2)cc1
17,849 s,Cc1ccc(C)c(C(=O)N2CCCC(COc3ccc(C(=O)NC4CC4)cc3)C2)c1 (stereo not drawn)

row,RP-LC retention time,SMILES
1,1280 s,COc1cccc(-n2c(=O)c(C(=O)NC3CCCCC3)c(O)c3cccnc32)c1
2,860 s,O=C(CCn1nnc2cc(-c3noc(Cc4ccc(Br)cc4)n3)ccc21)N1CCOCC1
3,1030 s,CCCCOc1ccc(NC(=O)c2oc3cc(C)c(Cl)cc3c2C)c2cccnc12
4,709 s,COc1ccc2[nH]cc(CCN3CC(C(=O)NC4CCCC4)CC3=O)c2c1 (stereo not drawn)
5,609 s,Cc1cnc(C2CCC2)n1CC1CCN(C(=O)Nc2ccc3c(c2)OCCO3)C1 (stereo not drawn)
6,615 s,COc1ccc(C(=O)N2CCC(c3cc(N)on3)CC2)cc1OC
7,784 s,CCN(CC)C(=O)N1CC(Oc2ccccc2-c2nc(-c3cnccn3)no2)C1
8,718 s,CCOC(=O)N1CCN(c2ncc(C(=O)Nc3ccc(OCC)cc3)c(N)n2)CC1
9,605 s,Cc1ccc(C)c(CNC(=O)CCNc2cnc3cnccn23)c1
10,775 s,CO[C@H]1C(=O)N(C(C)C)[C@H]1C1CCN(S(=O)(=O)c2cccc3cccnc23)CC1
11,873 s,COc1ccc(C(=O)Nc2cccn3nc(C(C)C)nc23)cc1
12,976 s,O=C(Nc1ccc(F)cc1Cl)c1cnc(-c2ccccc2)nc1-c1ccncc1
13,642 s,c1cc(-c2nc(-c3ccc4c(c3)nnn4CCN3CCCCC3)no2)co1
14,832 s,Cc1nc(-c2csc(S(=O)(=O)N3CCC(C(=O)NCc4ccc5c(c4)OCO5)CC3)c2)no1
15,1040 s,CC(C)OC(=O)Cn1nc2c(-c3nc(-c4ccc(Cl)cc4)no3)cccn2c1=O
16,712 s,Cc1cnn(CCC(=O)N2CC(n3cc(COc4ccc(F)cc4)nn3)C2)c1
17,616 s,O=C(NC1CCN(c2cc(-c3cccnc3)[nH]n2)CC1)c1ccc2cc[nH]c2c1

# Continued, molecule first:
row,SMILES,RP-LC retention time
1,O=C(Cn1ncc2c(N3CCN(c4ccccn4)CC3)ncnc21)Nc1ccc(OC(F)(F)F)cc1,660 s
2,CC1(C(=O)NCc2ccc(F)cc2)Cn2cnc(C(=O)NCCc3ccccc3)c2C(=O)N1C1CC1 (stereo not drawn),772 s
3,Cc1oc2ccn(Cc3ccc(F)cc3)c(=O)c2c1C(=O)NCc1ccco1,975 s
4,CN(C)C(=O)Cc1ccc(NC(=O)Cc2ccc(-c3ccccc3)cc2)cc1,795 s
5,CCOc1ccc(NC(=O)c2cc3ccccc3cc2O)cc1,1130 s
6,COCCC1CCN(C(=O)c2cc(F)ccc2F)CC1,749 s
7,CCn1nc(N2CCCC(N)C2)ccc1=O (stereo not drawn),497 s
8,CCNC(=O)Nc1ccc(OCC(=O)NC(C)c2ccc(OC)c(OC)c2)nc1 (stereo not drawn),644 s
9,CCCOc1nc2ccccc2nc1N1CCCC(C(=O)Nc2cccc(CC)c2)C1 (stereo not drawn),1260 s
10,Cc1cccc(Cn2nc3ccc(S(=O)(=O)N4CCCCCC4)cn3c2=O)c1,1000 s
11,COCCCNC(=O)c1nnc(-c2ccc(S(=O)(=O)N(C)C)cc2)o1,717 s
12,COc1ccc(NC(=O)Cn2nc3cc(-c4ccccc4)nc(C)n3c2=O)cc1,661 s
13,CCn1nc2ccc(S(=O)(=O)N3CCOCC3)cn2c1=O,645 s
14,Cc1ccc(CN2CCN(CC(=O)NCc3cccnc3)C(=O)C2=O)cc1,859 s
15,O=C(CN1C(=O)CCC1=O)Nc1nnc(-c2ccc(C(F)(F)F)cc2)o1,674 s
16,CCN(CC)C(=O)CSc1c(C(C)C)cnc2c1c(=O)n(C)c(=O)n2C,898 s
17,O=C1CCc2cc(NC(=O)c3cccc(C(F)(F)F)c3)ccc2N1,717 s
18,O=C(NCCCN1CCOCC1)C(=O)Nc1ccc(Br)cc1F,625 s
19,CCN1c2ccccc2C(=O)NC12CCN(C(=O)Nc1ccccc1C)CC2,731 s
20,O=S(=O)(c1cc(Cl)ccc1Cl)N1CCc2nc(-c3ccc(F)cc3)ncc2C1,1240 s
21,COc1ccc(CN2N=C(C(=O)N3CCCC3)S(=O)(=O)c3ccccc32)cc1F,725 s
22,O=C(CCC1CCN(c2cc(NC3CC3)ncn2)CC1)NCc1ccccc1Cl,676 s
23,COc1ccc(NC(=O)C2CCN(S(=O)(=O)c3ccc4c(c3)CCCC(=O)N4)CC2)c(OC)c1,741 s
24,Cc1ccc(-c2nnc(-c3ccc(Cl)c(S(=O)(=O)N4CCCC4)c3)o2)cc1,1150 s
25,CCc1nc(OCC(=O)NCc2ccc(F)cc2)c2ccccc2n1,753 s
26,Cn1ncn2cc(S(=O)(=O)NCc3ccc(Cl)cc3)cc2c1=O,817 s
27,COC(=O)c1ccc(NC(=O)N2[C@H]3CC[C@@H]2c2cnc(-c4ccc(F)cc4)nc2C3)cc1,993 s

row,SMILES,RP-LC retention time
1,O=C1CC(c2ccccc2)Oc2ccccc21 (stereo not drawn),932 s
2,O=C(CN1CCN(Cc2ccc(F)cc2)C1=O)NCc1ccc(OC(F)(F)F)cc1,901 s
3,O=C(CC1CCN(C(=O)c2ccc3nc(-c4ccccc4)oc3c2)CC1)NCc1ccco1,789 s
4,COc1ccc(Br)cc1C1C(C(=O)N2CCOCC2)=C(C)NC2=C1C(=O)CCC2 (stereo not drawn),660 s
5,Cc1[nH]c2ccccc2c1C(=O)C(=O)N(C)Cc1ccccc1,805 s
6,CCc1nnc(-c2ccc3ccn(CC(=O)Nc4ccc5c(c4)OCCO5)c3c2)o1,811 s
7,O=C(CN1C(=O)c2ccccc2C1=O)Oc1ccc2nc(N3CCCCC3)sc2c1,923 s
8,Cc1ccc(CNC(=O)C2(C)CCN(S(=O)(=O)c3ccc(Cl)cc3)CC2)cc1,615 s
9,Cc1ccc(NS(=O)(=O)c2ccc3c(c2)C(=O)N(C)c2ncccc2O3)cc1,914 s
10,Cc1ccc(N2CCC(NC(=O)c3ccc(C#N)cc3)C2=O)cc1 (stereo not drawn),798 s
11,COc1ccc(C2=NC3(CCN(C(=O)c4ccc(OC)cc4OC)CC3)NC2=O)cc1,776 s
12,O=C(COc1ccc(C(=O)N2CCN(CCc3ccccc3)CC2)cc1)C1CC1,583 s
13,COc1ccc(-c2cn3cccnc3n2)cc1NS(=O)(=O)c1ccc(Br)cc1,721 s
14,COc1ccc(OC)c(NC(=O)N2CCC3(CC2)N=C(c2ccc(F)cc2)C(=O)N3)c1,838 s
15,CNC(=O)c1ccc2c(c1)CCCN2S(=O)(=O)c1ccccc1,769 s
16,Cc1ccc(CNC(=O)C2(C)CCN(S(=O)(=O)c3ccc(C4CCCCC4)cc3)CC2)cc1,1270 s
17,CC(C)CCNC(=O)C1(C)CN(S(=O)(=O)c2ccccc2)CC(=O)N1c1cccc(Cl)c1 (stereo not drawn),1020 s
18,CC(=O)Nc1ccc(CCc2nc3ccc(C(=O)NCc4ccc(C)o4)cc3[nH]2)cc1,606 s
19,CCc1nc2cccnc2n1CCN1CCN(C(=O)Nc2ccc3c(c2)OCO3)CC1,579 s
20,Cc1oc(C2CCN(S(=O)(=O)c3cccc(C#N)c3)CC2)nc1C(=O)N1CCOCC1,734 s
21,COCCN1C(=O)Cc2ccccc2C1C(=O)NCc1cccs1 (stereo not drawn),715 s
22,CCc1cc(-c2csc(S(=O)(=O)NCCCc3ccccc3)c2)on1,1060 s
23,CCC(C)C(NC(=O)c1cc(OC)cc(OC)c1)C(=O)Nc1nc2ccccc2[nH]1 (stereo not drawn),769 s
24,CN(C(=O)C(=O)Nc1ccc2nc3n(c(=O)c2c1)CCCCC3)c1cccc(C(F)(F)F)c1,819 s
25,COc1ccccc1N1CCN(c2ccnc(SCC(=O)Nc3ccccc3C)n2)CC1,666 s
26,COc1cccc(-c2cc3n(n2)CCCN(C(=O)NCc2ccco2)C3)c1,850 s
27,CCOC(=O)CCC(=O)N(Cc1ccsc1)CC(F)(F)F,839 s
